This is an account of results in ChEMBL document CHEMBL1140820, “beta-N-Biaryl ether sulfonamide hydroxamates as potent gelatinase inhibitors: part 2. Optimization of alpha-amino substituents” (Bioorg Med Chem Lett, 2008).

Molecules are shown by their SMILES. Some results are limits rather than exact numbers.

The nature of data set [1]: Cmax in rat at 0.5 mg/kg, iv. Format: ADME, organism-based. Particulars: in vivo. On the set-up: dose 0.5 mg/kg, route intravenous.
Data set [2] in a line: Apparent elimination half life in rat at 0.5 mg/kg, iv. On the set-up: dose 0.5 mg/kg, route intravenous. Format: ADME, organism-based. Particulars: in vivo, read-out: beta t1/2 (converted).
For the next data set, the system named is Rattus norvegicus. Briefly: Reduction of ischemia induced brain edema in Sprague-Dawley rat tMCAo model at 2 mg/kg, iv after 3 hrs. Format: functional. On the set-up: scale not given: the % may be the effect or the level left.
A short description of data set [3]: Selectivity for MMP9 over MMP2.
A short description of data set [4]: Protein binding in rat at 0.5 mg/kg, iv. Format: ADME, organism-based. More on the design: dose 0.5 mg/kg, route intravenous. Conditions: plasma, read-out: PPB (converted).
A short description of data set [5]: Clearance in rat at 0.5 mg/kg, iv. More on the design: dose 0.5 mg/kg, route intravenous. Format: ADME, organism-based. Conditions: in vivo.
Data set [6] in a line: AUC in rat at 0.5 mg/kg, iv. Conditions: plasma. Format: ADME, organism-based. On the set-up: dose 0.5 mg/kg, route intravenous.
The nature of data set [7]: Aqueous solubility at pH 2.0. Format: physicochemical.
Data set [8] can be described thus: Metabolic stability in human liver microsomes assessed as half life […]. Format: ADME, Microsome. (Liver microsomes are vesicles of endoplasmic reticulum, rich in cytochrome P450 enzymes.)
The nature of data set [9]: Aqueous solubility at pH 7.0. Format: physicochemical.
Data set [10] in a line: Metabolic stability in rat liver microsomes assessed as half life […]. Format: ADME, Microsome.
Data set [11] is described as follows: Volume of distribution at steady state in rat at 0.5 mg/kg, iv. Format: ADME, organism-based. More on the design: dose 0.5 mg/kg, route intravenous. Particulars: in vivo, read-out: Vdss.

One may read the Cmax as the highest concentration seen after dosing. For orientation: clearance means the volume of plasma or blood freed of the substance per unit of time. One may read the AUC as concentration integrated over time. What is called solubility is how much of the substance goes into solution per volume. As for `CS(=O)(=O)N(C[C@@H](C(=O)NO)N1CCOCC1)c1ccc(Oc2ccc(C(F)(F)F)cc2)cc1`, the Cmax in data set [1] came to 860 nM. Further, the half-life was 0.2 h in [2], above 2 h in data set [8] and above 2 h in data set [10]. Besides, the Activity with Rattus norvegicus is recorded as 3.3%. Further, in data set [3], the Ratio IC50 is 3.2. Besides, the fraction unbound in data set [4] is 0.26. The compound further registered a clearance in data set [5] of 65.4 mL/min/kg. Moreover, the AUC in data set [6] is 130 ng·h/mL. In addition, the solubility in [7] and in data set [9] was above 70 µg/mL each time. For the same compound, the Vd in data set [11] was determined as 0.99 L/kg.
